# Test system: ophthalmologic clinical symptoms and signs of Sjögren syndrome
# Experiment: Therapeutic experiment with α,α-trehalose eye drops in patients diagnosed with Sjögren syndrome
# Format: in vivo, human
# Source text: To confirm the therapeutic effect by trehalose on the ophthalmologic clinical symptoms and signs of Sjögren syndrome, patients consisting of 10 men and 10 women, 22-65 years old (a mean average of 45 years old), who were diagnosed as Sjögren syndrome and had been suffering from clinical symptoms such as foreign body sensation, burning, and itching in their both eyes, were subjected to a therapeutic experiment. In this experiment, a reagent grade of α,α-trehalose with a purity of 99% or higher, commercialized by Hayashibara Biochemical Laboratories, Inc., Okayama, Japan, was dissolved in physiological saline to give a final concentration of 3.5% (w/v) or 7.5% (w/v), and filtered with a 0.22 μm membrane filter to remove bacteria. Then, the filtrate was removed pyrogen in a usual manner for a test preparation. As a control, a similar preparation was provided except for not dissolving α,α-trehalose therein. The 3.5% (w/v) α,α-trehalose solution was administered to one eye for each one of 5-male and 5-female patients, while the physiological saline as a control was administered to the other eye for each one of the patients. The administrations were conducted at four times (getting up, daytime, evening, and before sleeping) a day and at a dose of two to three drops (a volume of about 0.05 to about 0.075 ml) per shot for four weeks. Before and after this experiment, the patients were asked to grade the symptoms of foreign body sensation, burning, and itching in their eyes. Using the 7.5% (w/v) α,α-trehalose solution, a similar experiment was conducted with the remaining male and female patients, five each.
# [1] = patients with Sjögren syndrome, 3.5% or 7.5% (w/v) solution, four times a day for four weeks
smiles,measurement,setting,value
"OC[C@H]1O[C@H](O[C@H]2O[C@H](CO)[C@@H](O)[C@H](O)[C@H]2O)[C@H](O)[C@@H](O)[C@@H]1O [α,α-trehalose]",duration of therapeutic effect after end of administration,after completion of the four-week experiment,lasted for some days even after the completion of this experiment
same,exacerbation of the ophthalmologic clinical symptoms and signs in the treated eyes,"all twenty patients, during and after completion of the four-week experiment",no exacerbation
same,"improvement or remission of the subjective ophthalmic symptoms of foreign body sensation, burning, and itching","patients with Sjögren syndrome, 3.5% (w/v) or 7.5% (w/v) solution in physiological saline, one eye, 2-3 drops four times a day for four weeks, other eye saline control",nine out of ten patients
same,corneal and conjunctival erosions stained by fluorescein and rose bengal (objective sign),[1],reduced in all the ten patients
same,tear film break-up time (objective sign),[1],improved in nine out of ten patients

# Source: patent US7732425B2, “Pharmaceutical composition for ophthalmic use” (Kabushiki Kaisha Hayashibara Seibutsu Kagaku Kenkyujo, priority 2000, dated 2010)
